What all share (type): cell-based
One assay has as its system DENV2 replicon. The assay can be described thus: DENV-2 Huh-7 Rep EC50 (replicon luminescence). As to conditions: read-out: DENV-2 Huh-7 Rep EC50. How it is done: In 384 well plates (Greiner, Cat #781091), compounds were acoustically transferred at 200 nl per well in a 8 compound (4 replicates) or 40 compound dose response format (3 replicates). For all plates tested, Balapiravir, GS-5734 and NITD008 were included as positive inhibition controls alongside 0% inhibition, DMSO-only negative control wells. Following compound addition, Huh-7 cells containing the DENV2 replicon construct were harvested following standard cell culture procedures and were adjusted to a concentration of 1.25E5 cells/mL in cell culture media composed of cDMEM without genticin. 40 μL of the cell stock was then added to each well for a final cell density of 5,000 cells/well. Cell and compound mixtures were incubated at 37° C./5% CO2 for 48 hours. Prior to harvesting cells, EnduRen Live Cell Substrate (Promega, Cat #E6481) was prepared by suspending 3.4 mg into 100 uL of DMSO to generate a 60 mM stock solution. The stock solution was then diluted 1:200 in pre-warmed cDMEM and 10 uL of this diluted solution was added to each well of the 384 well plates. Plates were then centrifuged at 500 rpm briefly and were placed on a plate shaker for 2 min. Following mixing, plates were incubated at […] for 1.5 hours prior to measuring luminescence on an Envision luminometer.
For orientation: In antiviral work, replicon cells carry a viral genome segment that copies itself.

In the next assay the test system is RSV A2. The assay can be described thus: RSV NHBE EC50 (RSV A2 antiviral assay in normal human bronchial epithelial cells). As to conditions: NHBE cells, RSV A2, 4 days, read-out: RSV NHBE EC50.
For the next assay, the system named is RSV strain A2. The assay can be described thus: RSV HEp-2 EC50 (infectious cytopathic cell protection assay). As to conditions: HEp-2 cells, RSV A2, 4 days, read-out: RSV HEp-2 EC50. Put shortly: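 Percent inhibition of RSV-induced cytopathic effect came from remaining cell viability (CellTiter-Glo luminescence) after 4 days at 37° C. Compounds in 3-fold serial dilutions were exposed to an infectious mix of titered A2 virus and HEp-2 cells at 50,000/ml, with 0% and 100% inhibition control standards.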
(Protection from cytopathic effect is a common read-out in antiviral testing.)

In a further assay the test system is HRV16. The assay can be described thus: HRV16 HELA EC50 (cytopathic effect in H1-HeLa cells). As to the method:
H1-HeLa cells, cultured in complete DMEM medium containing 10% heat-inactivated FBS and 1% Penicillin/Streptomycin, were seeded in 96 well plates at 3000 cells/well one day prior to compound dosing and infection. The antiviral activity of each compound was measured in triplicate. Compounds were added directly to the cell cultures in serial 3-fold dilutions using the HP300 digital dispenser (Hewlett Packard, Palo Alto, CA) immediately prior to infection. The plates were transferred to BSL-2 containment and the appropriate dilution of virus stock, previously determined by titration and prepared in cell culture media, was added to test plates containing cells and serially diluted compounds. Each plate included 6 wells of infected untreated cells and 6 wells of uninfected cells that served as 0% and 100% virus inhibition control, respectively. Following the infection, test plates were incubated for 96 h in a tissue culture incubator set to 33° C./5% CO2. Following incubation, the H1-HeLa cells were removed from incubation and allowed to equilibrate to 25° C. Cell viability was determined by removing 100 μL of culture medium and adding 100 μL of Cell-Titer Glo viability reagent. The mixtures were incubated on a shaker for 10 minutes at 25° C., and the luminescence signal was quantified on an Envision luminescence plate reader.

Where [1] appears, read: Dengue virus, DENV2, Huh-7, 48 h, Huh-7 replicon cells, 48 hours.
[2] abbreviates: human respiratory syncytial virus, NHBE, 96 h.
[3] abbreviates: human respiratory syncytial virus, HEp-2, 96 h.
The mark [4] stands for this setting: 96 h, H1-HeLa cells, 33° C., read-out: HRV16 HELA EC50.
Where [5] appears, read: Dengue virus, DENV2, Huh-7, 48 h.
Where [6] appears, read: human respiratory syncytial virus, 96 h.
Where [7] appears, read: H1-HeLa cells, 96 h, 33° C.; read-out: HRV16 HELA EC50.

Read-outs that look alike come from different tables or passages of the source. Some results are limits rather than exact numbers.

In US20230295201A1 (Gilead Sciences, Inc., priority 2020, published 2023) one finds EC50 data, which are given here for 14 compounds.

Broadly, the EC50 is the concentration that produces a half-maximal response.

In the case of `CC(C)C[C@H](NP(=O)(OC[C@@]1(C#N)O[C@@H](c2ccc3c(N)ncnn23)[C@H](O)[C@@H]1O)Oc1ccccc1)C(=O)OCC1CC1` (mixture of isomers) [Example 130, (2S)-cyclopropylmethyl 2-(((((2R,3S,4R,5S)-5-(4-aminopyrrolo[2,1-f][1,2,4]triazin-7-yl)-2-cyano-3,4-dihydroxytetrahydrofuran-2-yl)methoxy)(phenoxy)phosphoryl)amino)-4-methylpentanoate], the EC50 in the assay with DENV2 replicon (setting [1]) was over 100000 nM; in the assay with RSV A2 (setting [2]), 438 nM; in the assay on RSV strain A2 (setting [3]), 3590 nM; with HRV16 (setting [4]) it was 7300 nM.

Regarding `C[C@H](NP(=O)(OC[C@@]1(C#N)O[C@@H](c2ccc3c(N)ncnn23)[C@H](O)[C@@H]1O)Oc1ccccc1)C(=O)OC1CCCCCC1` (stereo partly drawn) [Example 134, (2S)-cycloheptyl 2-(((((2R,3S,4R,5S)-5-(4-aminopyrrolo[2,1-f][1,2,4]triazin-7-yl)-2-cyano-3,4-dihydroxytetrahydrofuran-2-yl)methoxy)(phenoxy)phosphoryl)amino)propanoate], the EC50 in the assay with DENV2 replicon (setting [1]) came out at 24700 nM; with RSV A2 (setting [2]), 52 nM; in the assay with RSV strain A2 (setting [3]) it was 334 nM; in the assay on HRV16 (setting [4]), 247 nM.

For `CCOC(=O)[C@H](CCCCNC(C)=O)NP(=O)(OC[C@@]1(C#N)O[C@@H](c2ccc3c(N)ncnn23)[C@H](O)[C@@H]1O)Oc1ccccc1` (mixture of isomers) [Example 85, (2S)-ethyl 6-acetamido-2-(((((2R,3S,4R,5S)-5-(4-aminopyrrolo[2,1-f][1,2,4]triazin-7-yl)-2-cyano-3,4-dihydroxytetrahydrofuran-2-yl)methoxy)(phenoxy)phosphoryl)amino)hexanoate], the EC50 was over 50000 nM in the assay on DENV2 replicon (setting [1]), over 5000 nM in the assay on RSV A2 (setting [2]), over 46700 nM with RSV strain A2 (setting [3]) and over 50000 nM in the assay with HRV16 (setting [4]).

With `N#C[C@]1(COP(=O)(NCC(=O)OC2CCCC2)Oc2ccccc2)O[C@@H](c2ccc3c(N)ncnn23)[C@H](O)[C@@H]1O` (single isomer, unassigned) [Example 113], the concentration giving a half-maximal response (EC50) in the assay with DENV2 replicon (setting [1]) is 42700 nM; with RSV A2 (setting [2]), 352 nM; in the assay on RSV strain A2 (setting [3]), 611 nM; in the assay with HRV16 (setting [4]), 2640 nM.

As to `C[C@H](NP(=O)(N[C@@H](C)C(=O)OCC1CCC1)OC[C@@]1(C#N)O[C@@H](c2ccc3c(N)ncnn23)[C@H](O)[C@@H]1O)C(=O)OCC1CCC1` [Example 36, (2R,3S,4R,5S)-5-(4-aminopyrrolo[2,1-f][1,2,4]triazin-7-yl)-2-cyano-3,4-dihydroxytetrahydrofuran-2-yl)methyl bis-cyclobutylmethyl L-alaninate phosphate], the EC50 was over 50000 nM in the assay on DENV2 replicon (setting [5]), 312 nM in the assay on RSV A2 (setting [6]), 1440 nM with RSV strain A2 (setting [6]) and 10700 nM in the assay with HRV16 (setting [7]).

Consider `C[C@H](NP(=O)(OC[C@@]1(C#N)O[C@@H](c2ccc3c(N)ncnn23)[C@H](O)[C@@H]1O)Oc1ccccc1)C(=O)OC1CCC1` (some centres unmarked) [Example 51], for which the EC50 in the assay on DENV2 replicon (Huh-7 replicon cells, 48 hours) was 9210 nM; in the assay on RSV A2, over 1240 nM; in the assay on RSV strain A2, 90 nM; in the assay on HRV16 (setting [7]), 357 nM.

Take `C[C@H](NP(=O)(OC[C@@]1(C#N)O[C@@H](c2ccc3c(N)ncnn23)[C@H](O)[C@@H]1O)Oc1ccccc1)C(=O)OC1CCC(F)(F)CC1` (single isomer, unassigned) [Example 176]: the concentration giving a half-maximal response (EC50) with DENV2 replicon (Huh-7 replicon cells, 48 hours) worked out at 28600 nM; in the assay on RSV A2, 1640 nM; with RSV strain A2, 161 nM; in the assay on HRV16 (setting [4]) it was 547 nM.

As for `CCCCCCCC(=O)Nc1ncnn2c([C@@H]3O[C@](C#N)(CO[P@@](=O)(N[C@@H](C)C(=O)OC4CCCCC4)Oc4ccccc4)[C@@H](O)[C@H]3O)ccc12` [Example 212, Cyclohexyl ((S)-(((2R,3S,4R,5S)-2-cyano-3,4-dihydroxy-5-(4-octanamidopyrrolo[2,1-f][1,2,4]triazin-7-yl)tetrahydrofuran-2-yl)methoxy)(phenoxy)phosphoryl)-L-alaninate], the EC50 with DENV2 replicon (setting [1]) was 9770 nM; with RSV A2 (setting [2]), over 5000 nM; in the assay with RSV strain A2 (setting [3]), 133 nM; in the assay on HRV16 (setting [4]) it was 670 nM.

Consider `C[C@H](NP(=O)(N[C@@H](C)C(=O)OC1CCCCC1)OC[C@@]1(C#N)O[C@@H](c2ccc3c(N)ncnn23)[C@H](O)[C@@H]1O)C(=O)OC1CCCCC1` [Example 14], for which the EC50 in the assay on DENV2 replicon (setting [5]) was over 100000 nM; with RSV A2 (setting [6]), 1270 nM; in the assay on RSV strain A2 (setting [6]), 3650 nM; in the assay with HRV16 (setting [7]), 12400 nM.

`CC[C@H](N[P@@](=O)(OC[C@@]1(C#N)O[C@@H](c2ccc3c(N)ncnn23)[C@H](O)[C@@H]1O)Oc1ccccc1)C(=O)OCC(C)(C)C` [Example 158]: the EC50 is over 50000 nM in the assay on DENV2 replicon (Huh-7 replicon cells, 48 hours); 1270 nM in the assay on RSV A2; 969 nM in the assay on RSV strain A2; 13000 nM in the assay with HRV16 (setting [7]).

As for `CCCCCCCCCCCCCCCCCCOC[C@H](COC(=O)C(C)NP(=O)(OC[C@@]1(C#N)O[C@@H](c2ccc3c(N)ncnn23)[C@H](O)[C@@H]1O)Oc1ccccc1)OCc1ccccc1` (stereo partly drawn) [Example 190, (R)-2-(benzyloxy)-3-(octadecyloxy)propyl ((((2R,3S,4R,5S)-5-(4-aminopyrrolo[2,1-f][1,2,4]triazin-7-yl)-2-cyano3,4-dihydroxytetrahydrofuran-2-yl)methoxy)(phenoxy)phosphoryl)alaninate], the EC50 in the assay with DENV2 replicon (setting [1]) is over 100000 nM; with RSV A2 (setting [2]), 2060 nM; in the assay with RSV strain A2 (setting [3]) it was 136 nM; in the assay on HRV16 (setting [4]), 2640 nM.

Regarding `CC(C)[C@H](N)C(=O)Nc1ncnn2c([C@@H]3O[C@](C#N)(CO[P@@](=O)(N[C@@H](C)C(=O)OC4CCCCC4)Oc4ccccc4)[C@@H](O)[C@H]3O)ccc12` [Example 237, cyclohexyl ((S)-(((2R,3S,4R,5S)-5-(4-((S)-2-amino-3-methylbutanamido)pyrrolo[2,1-f][1,2,4]triazin-7-yl)-2-cyano-3,4-dihydroxytetrahydrofuran-2-yl)methoxy)(phenoxy)phosphoryl)-L-alaninate], the EC50 in the assay on DENV2 replicon (setting [1]) is over 50000 nM; in the assay with RSV A2 (setting [2]) it was over 10800 nM; in the assay on RSV strain A2 (setting [3]), over 38400 nM; in the assay on HRV16 (setting [4]), over 50000 nM.

With `CC(C)[C@H](NC(=O)OC(C)(C)C)C(=O)OCCNP(=O)(OC[C@@]1(C#N)O[C@@H](c2ccc3c(N)ncnn23)[C@H](O)[C@@H]1O)Oc1ccccc1` (stereo partly drawn) [Example 139, (2S)-2-(((((2R,3S,4R,5S)-5-(4-aminopyrrolo[2,1-f][1,2,4]triazin-7-yl)-2-cyano-3,4-dihydroxytetrahydrofuran-2-yl)methoxy)(phenoxy)phosphoryl)amino)ethyl 2-((tert-butoxycarbonyl)amino)-3-methylbutanoate], the EC50 was over 50000 nM in the assay with DENV2 replicon (setting [1]), 103 nM in the assay with RSV A2 (setting [2]), 6430 nM with RSV strain A2 (setting [3]) and 28300 nM with HRV16 (setting [4]).

Take `C[C@H](NP(=O)(OC[C@@]1(C#N)O[C@@H](c2ccc3c(N)ncnn23)[C@H](O)[C@@H]1O)Oc1ccccc1)C(=O)OC1CCCC(C)(C)C1` (mixture of isomers) [Example 154, 3,3-dimethylcyclohexyl ((((2R,3S,4R,5S)-5-(4-aminopyrrolo[2,1-f][1,2,4]triazin-7-yl)-2-cyano-3,4-dihydroxytetrahydrofuran-2-yl)methoxy)(phenoxy)phosphoryl)-L-alaninate]: the 50% effective concentration (EC50) with DENV2 replicon (setting [1]) was 50700 nM; in the assay on RSV A2 (setting [2]), 311 nM; in the assay on RSV strain A2 (setting [3]) it was 2700 nM; with HRV16 (setting [4]), 1950 nM.
